The record followed here is patent US9102648B1, “Bioavailable diacylhydrazine ligands for modulating the expression of exogenous genes via an ecdysone receptor complex” (Intrexon Corporation, priority 2003, dated 2015).

Series [1] has as its system mutated ecdysone receptor-based gene switch. In words: In vivo SEAP induction, ligand by IP injection. Details: species or system C57BL/6 mouse. To be noted: IP 26 nmol ligand. The protocol: Applicants' ligands are useful in various applications including gene therapy, expression of proteins of interest in host cells, production of transgenic organisms, and cell-based assays. In vivo induction of a reporter enzyme with various ligands of the present invention was evaluated in a C57BL/6 mouse model system containing a gene switch.
Each element of the gene switch was on a separate plasmid. Receptor expression was under the control of a CMV promoter (SEQ ID NO: 15). Induction was evaluated by the amount of reporter protein expressed in the presence of ligand.
SEAP expression in serum of mice was evaluated after electroporation of the gene switch into mouse quadriceps. Mice were anesthetized with 2 μL/g of a mixture of ketamine (100 mg/mL) and xylazine (20 mg/mL). Animals were then shaved, DNA vectors injected into the muscle in a volume of 2×50 μL polyglutamic acid (12 mg/mL water), electrode conductivity gel applied, and an electrode caliber (1 cm×1 cm; model 384) was placed on hind leg. The muscle was electroporated with 200 V/cm, 8 times, for 20 msec/pulse, at 1 sec time intervals. The transverse electrical field direction was reversed after the animals received half of the pulses. Electroporation was performed with an ECM 830 electroporator from BTX Molecular Delivery Systems.
In some experiments mice received an intraperitoneal injection (IP) of 2.6 μmol of ligand in 50 μL of DMSO 3 days after electroporation of the gene switch. In other experiments the concentration of ligand was decrease to 26 nmol/50 μL of DMSO/mouse. SEAP expression was evaluated 2-11 days after ligand administration. In other experiments ligand was administered in rodent chow. The chow was prepared by dissolving 2 g of ligand in 20 mL of acetone and adding it to 1 kg of LabDiet 5010 autoclavable chow from Purina Mills. This was thoroughly mixed in a Hobart mixer and then mixed for an additional 15 min in a Cross Blend mixer. Animals received chow ad libitum for 1, 2, or 3 days. All values are the average from four animals. Background SEAP in sera from animals treated with vector alone without ligand addition was 0-11 ng/mL serum.
Mouse serum was obtained by centrifugation of blood acquired by retroorbital bleeding with a small glass capillary tube. SEAP quantification was determined using a Clontech Great Escape chemiluminescence kit and by comparison with the Clontech SEAP standard.
Table 9: In vivo evaluation of ligand-mediated induction of a mutated ecdysone receptor-based gene switch. SEAP expression in serum of mice was evaluated after electroporation of the gene expression cassettes into mouse quadriceps. Mice received an IP injection of 2.6 μmol of ligand 3 days after electroporation. SEAP expression was evaluated 2-11 days after ligand administration. Each dose group was composed of four animals. Percentage of GS™-E ligand induction was determined by averaging SEAP expression from four animals divided by the average SEAP expression induced with GS™-E ligand and then multiplying by 100.
Table 10: Induction of gene switch expression with low concentrations of ligand. SEAP expression in serum of mice was evaluated after electroporation of the gene expression cassettes into mouse quadriceps. Mice received an IP injection of 26 nmol of ligand or 130 nmol GS™-E ligand 3 days after electroporation. SEAP expression was evaluated 2-7 days after ligand administration. Values are the average from 4 animals.

The target of series [2] is GAL4 DBD (1-147)-CfEcR(DEF)/VP16AD-βRXREF-LmUSPEF (Choristoneura fumiferana, UniProt O77240). Put plainly: cell-based. To be noted: for 27-63 assay Rel Max FI: maximum fold induction at any concentration relative to that of GS-E ligand, CHO 27-63 cells; for fold induction at 33 µM: read-out: Fold Induction, 27-63 Assay, 33 uM. The text has this: GAL4 DBD (1-147)-CfEcR(DEF)/VP16AD-βRXREF-LmUSPEF:
The wild-type D, E, and F domains from spruce budworm Choristoneura fumiferana EcR (“CfEcR-DEF”; SEQ ID NO: 1) were fused to a GAL4 DNA binding domain (“Gal4DBD1-147”; SEQ ID NO: 2) and placed under the control of a phosphoglycerate kinase promoter (“PGK”; SEQ ID NO: 3). Helices 1 through 8 of the EF domains from Homo sapiens RXRβ (“HsRXRβ-EF”; nucleotides 1-465 of SEQ ID NO: 4) and helices 9 through 12 of the EF domains of Locusta migratoria Ultraspiracle Protein (“LmUSP-EF”; nucleotides 403-630 of SEQ ID NO: 5) were fused to the transactivation domain from VP16 (“VP16AD”; SEQ ID NO: 6) and placed under the control of an elongation factor-1α promoter (“EF-1α”; SEQ ID NO: 7). Five consensus GAL4 response element binding sites (“5XGAL4RE”; comprising 5 copies of a GAL4RE comprising SEQ ID NO: 8) were fused to a synthetic TATA minimal promoter (SEQ ID NO: 9) and placed upstream of the luciferase reporter gene (SEQ ID NO: 10).
CHO cells were transiently transfected with transcription cassettes for GAL4 DBD (1-147) CJEcR(DEF) and for VP16AD βRXREF-LmUSPEF controlled by ubiquitously active cellular promoters (PGK and EF-la, respectively) on a single plasmid. Stably transfected cells were selected by Zeocin resistance. Individually isolated CHO cell clones were transiently transfected with a GAL4 RE-luciferase reporter (pFR Luc). 27-63 clone was selected using Hygromycin.
Cells were trypsinized and diluted to a concentration of 2.5×10^4 cells mL. 100 μL of cell suspension was placed in each well of a 96 well plate and incubated at 37° C. under 5% CO2 for 24 h. Ligand stock solutions were prepared in DMSO and diluted 300 fold for all treatments. Dose response testing consisted of 8 concentrations ranging from […] to 0.01 μM.
Luciferase reporter gene expression was measured 48 h after cell treatment using Bright-Glo™ Luciferase Assay System from Promega (E2650). Luminescence was detected at room temperature using a Dynex MLX microtiter plate luminometer.
Each assay was conducted in two separate wells, and the two values were averaged. Fold inductions were calculated by dividing relative light units (“RLU”) in ligand treated cells with RLU in DMSO treated cells. EC50s were calculated from dose response data using a three-parameter logistic model.

For series [3], the target named is GAL4 DBD-CfEcR(DEF)/VP16AD-MmRXRE (Choristoneura fumiferana, UniProt O77240). In words: 13B3 Assay (CHO stable cell line, luciferase reporter). To be noted: for Fold Induction, 13B3 Assay, 33 uM: 33 uM ligand. The procedure, abridged: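 Ligands dosed at 8 levels from 33 to 0.01 μM (DMSO stocks diluted 300-fold) onto the 13B3 CHO line carrying GAL4-DBD/CfEcR-DEF, VP16/MmRXR-DE and a GAL4-responsive luciferase gene.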

The target of series [4] is T1, Bombyx mori EcR (VP16 fusion, CVBE switch construct) (Bombyx mori, UniProt P49881).
T1 sequence (P49881 86-606): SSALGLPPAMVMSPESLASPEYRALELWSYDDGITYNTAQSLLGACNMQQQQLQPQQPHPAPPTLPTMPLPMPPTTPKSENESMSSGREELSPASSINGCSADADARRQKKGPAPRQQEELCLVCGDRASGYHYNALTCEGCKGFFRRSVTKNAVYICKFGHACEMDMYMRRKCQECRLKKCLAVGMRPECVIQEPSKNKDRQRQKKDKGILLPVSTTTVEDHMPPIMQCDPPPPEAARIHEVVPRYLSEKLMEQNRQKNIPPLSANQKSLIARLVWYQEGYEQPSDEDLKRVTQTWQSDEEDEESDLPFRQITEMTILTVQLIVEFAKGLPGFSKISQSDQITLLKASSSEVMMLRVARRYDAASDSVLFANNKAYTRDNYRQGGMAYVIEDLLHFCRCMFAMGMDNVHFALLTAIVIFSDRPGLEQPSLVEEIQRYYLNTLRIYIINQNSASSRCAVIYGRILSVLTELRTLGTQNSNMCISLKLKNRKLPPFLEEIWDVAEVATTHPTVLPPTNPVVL
T1 sequence (P19793 1-462 partner): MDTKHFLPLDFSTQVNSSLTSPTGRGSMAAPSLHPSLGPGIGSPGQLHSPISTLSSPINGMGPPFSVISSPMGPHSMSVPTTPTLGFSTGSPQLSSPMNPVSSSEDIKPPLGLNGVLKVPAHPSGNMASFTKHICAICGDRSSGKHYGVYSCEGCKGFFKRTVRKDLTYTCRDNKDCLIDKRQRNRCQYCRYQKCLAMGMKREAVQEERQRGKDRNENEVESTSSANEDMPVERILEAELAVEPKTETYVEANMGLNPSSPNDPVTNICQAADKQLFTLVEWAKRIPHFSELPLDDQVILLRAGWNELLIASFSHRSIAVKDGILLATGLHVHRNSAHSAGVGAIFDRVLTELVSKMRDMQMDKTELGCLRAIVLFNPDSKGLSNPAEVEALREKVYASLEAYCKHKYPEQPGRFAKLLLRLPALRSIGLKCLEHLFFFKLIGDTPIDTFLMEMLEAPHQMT
In words: Z3 Assay (HEK-293 cells with CVBE and 6XEcRE LacZ, β-galactosidase reporter). To be noted: for Fold Induction, Z3 Assay, 3.3 uM: 3.3 uM ligand; for Fold Induction, Z3 Assay, 3.3 uM / Fold Induction, Z3 Assay, 33 uM: ligand treated / DMSO treated cells; for Fold Induction, Z3 Assay, 3.3 uM / Fold Induction, Z3 Assay, 33 uM / EC50: average of two wells; for Fold Induction, Z3 Assay, 33 uM: 33 uM ligand; for Z3 assay Rel Max FI: maximum fold induction at any concentration relative to that of GS-E ligand; for Z3 assay Rel Max FI / EC50: HEK-293 Z3 cells; for EC50: read-out: Z3 assay EC50, β-galactosidase reporter.

The mark [5] stands for this setting: RLU ligand treated / RLU DMSO treated cells, average of two wells.

Each structure is given as a SMILES string.

For `CCC(N(NC(=O)c1ccc2c(c1C)OCCO2)C(=O)c1cc(OC)c(C)c(OC)c1)C(C)(C)C` (stereo not drawn) [RG-115857, 3,5-Dimethoxy-4-methyl-benzoic acid N-(1-ethyl-2,2-dimethyl-propyl)-N′-(5-methyl-2,3-dihydro-benzo[1,4]dioxine-6-carbonyl)-hydrazide], in series [1], the “Secreted Alkaline Phosphatase Day 2” value amounted to 574 ng/ml mouse sera and the “Secreted Alkaline Phosphatase Day 3” value stood at 401 ng/ml mouse sera. Besides, in series [2], the EC50 turned out to be 13 nM, the “27-63 assay Rel Max FI” value is recorded as 1.140 and the fold induction at 33 µM was found to be 328.
The like results for `CCC(N(NC(=O)c1ccc2c(c1C)OCCO2)C(=O)c1cc(C)cc(C)c1)C(C)(C)C` (stereo not drawn) [RG-115856, 3,5-Dimethyl-benzoic acid N-(1-ethyl-2,2-dimethyl-propyl)-N′-(5-methyl-2,3-dihydro-benzo[1,4]dioxine-6-carbonyl)-hydrazide] were, in that order, 2,292 ng/ml mouse sera, 2,350 ng/ml mouse sera, 3 nM, 0.879 and 1760.
The like results for `CCCC(N(NC(=O)c1ccc2c(c1C)OCCO2)C(=O)c1cc(C)cc(C)c1)C(C)(C)C` (stereo not drawn) [RG-115864, 3,5-Dimethyl-benzoic acid N-(1-tert-butyl-butyl)-N′-(5-methyl-2,3-dihydro-benzo[1,4]dioxine-6-carbonyl)-hydrazide] were, in that order, 6,722 ng/ml mouse sera, 5,652 ng/ml mouse sera, 4 nM, 0.979 and 1260.
Take `CCc1c(C(=O)NN(C(=O)c2ccccc2OC)C(C)(C)C)ccc2c1OCO2` [RG-100698]: in series [3] (setting [5]), the “Fold Induction, 13B3 Assay, 33 uM” value was found to be 434. Moreover, in series [4], the “Fold Induction, Z3 Assay, 3.3 uM” value was 1089; the “Fold Induction, Z3 Assay, 33 uM” value turned out to be 591; the “Z3 assay Rel Max FI” value stood at 1.025; the EC50 was determined as 1000 nM.
Turning to `Cc1cc(C)cc(C(=O)N(NC(=O)c2ccc3c(c2)OC(C)CO3)C(C)(C)C)c1` (racemic) [RG-101509], the “Fold Induction, 13B3 Assay, 33 uM” value in series [3] (setting [5]) was 1144. Further, in series [4], the “Fold Induction, Z3 Assay, 3.3 uM” value is 1303; the “Fold Induction, Z3 Assay, 33 uM” value is listed as 328; the “Z3 assay Rel Max FI” value is 0.882; the EC50 is 1180 nM.
In the case of `CCc1ccc(C(=O)NN(C(=O)c2cc(C)cc(C)c2)C(C)(C)C)cc1CC` [RG-101889], in series [3] (setting [5]), the “Fold Induction, 13B3 Assay, 33 uM” value worked out at 378. Further, in series [4], the “Fold Induction, Z3 Assay, 3.3 uM” value is 1085; the “Fold Induction, Z3 Assay, 33 uM” value was 245; the EC50 came out at 3300 nM.
`COc1cccc(C(=O)NN(C(=O)c2cc(Cl)nc(Cl)c2)C(C)(C)C)c1C` [RG-100394]: in series [3] (setting [5]), the “Fold Induction, 13B3 Assay, 33 uM” value turned out to be 178. Also, in series [4], the “Fold Induction, Z3 Assay, 3.3 uM” value is 1339; the “Fold Induction, Z3 Assay, 33 uM” value was found to be 11; the EC50 was 1220 nM.
With `CCc1ccc(C(=O)NN(C(=O)c2cc(F)c(F)c(F)c2)C(C)(C)C)c(F)c1` [RG-115259], in series [3] (3.3 uM ligand, RLU ligand treated / RLU DMSO treated cells, average of two wells), the “Fold Induction, 13B3 Assay, 3.3 uM” value was 3513. Moreover, in series [3] (setting [5]), the “Fold Induction, 13B3 Assay, 33 uM” value is 2981. In addition, the “13B3 assay Rel Max FI” value in series [3] (maximum fold induction at any concentration relative to that of GS-E ligand, CHO 13B3 cells) worked out at 0.702. The EC50 in series [3] (read-out: 13B3 EC50, CHO 13B3 stable cell line, luciferase reporter, 48 h, average of two wells) is 2700 nM. Further, in series [4], the “Fold Induction, Z3 Assay, 3.3 uM” value worked out at 91; the “Z3 assay Rel Max FI” value is 0.617; the EC50 came out at 427 nM.
Take `CCc1c(OC)cccc1C(=O)NN(C(=O)c1cnc(C)cn1)C(C)(C)C` [RG-115091]: the “Fold Induction, 13B3 Assay, 33 uM” value in series [3] (setting [5]) came to 1. Besides, in series [4], the “Fold Induction, Z3 Assay, 33 uM” value turned out to be 61.

As a reminder, the EC50 is the concentration at which the effect is half-maximal.
